Values belong to the compound of their own block, whether it stands above or below them.
Assays:
[1] = molecular target: PH-interacting protein (Homo sapiens) (UniProt Q8WWQ0); assay: Selectivity interaction (Human bromodomain panel (DSF assay)) EUB0000233b PHIP
[2] = molecular target: Serine/threonine-protein kinase MRCK beta (Homo sapiens) (UniProt Q9Y5S2); assay: Selectivity interaction (KinomeScan (DiscoverX)) EUB0000607a CDC42BPB; details: at 10 µM
[3] = molecular target: Protein kinase C delta type (Homo sapiens) (UniProt Q05655); assay: Selectivity interaction (SelectScreen profiling (Invitrogen)) EUB0000607a PRKCD; details: at 2 µM
[4] = molecular target: SRSF protein kinase 1 (Homo sapiens, UniProt Q96SB4); assay: Selectivity interaction (Upstate Kinase Profiler service (Millipore)) EUB0000056c SRPK1; details: at 1 µM
[5] = molecular target: T1, Phosphatidylinositol 4,5-bisphosphate 3-kinase catalytic subunit delta isoform (Homo sapiens) (UniProt O00329); assay: Selectivity interaction (ProQinase) EUB0000171b PIK3CD
T1 sequence (whole entry): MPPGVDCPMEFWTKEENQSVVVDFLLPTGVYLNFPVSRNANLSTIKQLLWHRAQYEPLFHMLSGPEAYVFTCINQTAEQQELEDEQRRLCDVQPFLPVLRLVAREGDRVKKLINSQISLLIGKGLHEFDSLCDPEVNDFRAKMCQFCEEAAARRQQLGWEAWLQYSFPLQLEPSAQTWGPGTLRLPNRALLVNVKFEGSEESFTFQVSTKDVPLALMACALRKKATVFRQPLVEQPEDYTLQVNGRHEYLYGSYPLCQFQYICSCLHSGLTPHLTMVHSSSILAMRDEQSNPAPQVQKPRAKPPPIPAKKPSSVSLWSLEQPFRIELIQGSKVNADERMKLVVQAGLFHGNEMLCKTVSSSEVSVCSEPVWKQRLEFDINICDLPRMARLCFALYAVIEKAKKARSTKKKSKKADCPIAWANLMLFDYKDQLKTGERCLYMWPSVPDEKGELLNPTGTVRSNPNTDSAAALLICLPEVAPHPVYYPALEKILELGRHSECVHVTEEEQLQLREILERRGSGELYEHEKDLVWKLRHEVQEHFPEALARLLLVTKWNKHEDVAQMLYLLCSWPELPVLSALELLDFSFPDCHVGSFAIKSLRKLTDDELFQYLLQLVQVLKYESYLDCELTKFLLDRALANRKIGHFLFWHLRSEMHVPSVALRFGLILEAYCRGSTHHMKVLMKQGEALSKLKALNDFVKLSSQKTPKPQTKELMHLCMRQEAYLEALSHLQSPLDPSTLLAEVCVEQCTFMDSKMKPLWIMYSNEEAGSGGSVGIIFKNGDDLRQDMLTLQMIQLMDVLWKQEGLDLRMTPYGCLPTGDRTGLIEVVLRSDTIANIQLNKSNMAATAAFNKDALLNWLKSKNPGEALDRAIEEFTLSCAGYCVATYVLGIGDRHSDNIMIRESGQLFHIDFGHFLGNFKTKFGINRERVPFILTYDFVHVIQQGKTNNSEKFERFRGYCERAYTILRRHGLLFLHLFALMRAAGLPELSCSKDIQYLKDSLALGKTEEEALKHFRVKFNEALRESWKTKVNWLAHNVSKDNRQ

[6] = molecular target: T2, Mitogen-activated protein kinase kinase kinase 2 (Homo sapiens) (UniProt Q9Y2U5); assay: Selectivity interaction (KinomeScan (DiscoverX)) EUB0000045b MAP3K2
T2 sequence (whole entry): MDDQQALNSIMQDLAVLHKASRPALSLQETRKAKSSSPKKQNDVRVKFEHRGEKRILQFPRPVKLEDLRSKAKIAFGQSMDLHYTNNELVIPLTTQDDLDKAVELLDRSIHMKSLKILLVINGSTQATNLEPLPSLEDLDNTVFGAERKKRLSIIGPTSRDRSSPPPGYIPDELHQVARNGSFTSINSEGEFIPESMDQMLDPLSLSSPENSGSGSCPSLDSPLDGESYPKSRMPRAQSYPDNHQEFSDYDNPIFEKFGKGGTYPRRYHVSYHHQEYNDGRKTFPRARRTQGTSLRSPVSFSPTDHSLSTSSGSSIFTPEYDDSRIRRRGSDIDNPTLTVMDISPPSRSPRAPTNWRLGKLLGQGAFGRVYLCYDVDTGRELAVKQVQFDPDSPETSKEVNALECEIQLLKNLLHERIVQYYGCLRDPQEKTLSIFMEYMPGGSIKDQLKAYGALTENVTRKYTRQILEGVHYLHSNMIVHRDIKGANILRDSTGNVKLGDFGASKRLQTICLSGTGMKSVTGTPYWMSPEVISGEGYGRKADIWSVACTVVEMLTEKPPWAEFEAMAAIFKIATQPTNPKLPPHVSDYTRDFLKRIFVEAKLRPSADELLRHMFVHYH

[7] = molecular target: T3, Dual serine/threonine and tyrosine protein kinase (Homo sapiens) (UniProt Q6XUX3); assay: Selectivity interaction (KinomeScan (DiscoverX)) EUB0001079a DSTYK; details: at 1 µM
T3 sequence (whole entry): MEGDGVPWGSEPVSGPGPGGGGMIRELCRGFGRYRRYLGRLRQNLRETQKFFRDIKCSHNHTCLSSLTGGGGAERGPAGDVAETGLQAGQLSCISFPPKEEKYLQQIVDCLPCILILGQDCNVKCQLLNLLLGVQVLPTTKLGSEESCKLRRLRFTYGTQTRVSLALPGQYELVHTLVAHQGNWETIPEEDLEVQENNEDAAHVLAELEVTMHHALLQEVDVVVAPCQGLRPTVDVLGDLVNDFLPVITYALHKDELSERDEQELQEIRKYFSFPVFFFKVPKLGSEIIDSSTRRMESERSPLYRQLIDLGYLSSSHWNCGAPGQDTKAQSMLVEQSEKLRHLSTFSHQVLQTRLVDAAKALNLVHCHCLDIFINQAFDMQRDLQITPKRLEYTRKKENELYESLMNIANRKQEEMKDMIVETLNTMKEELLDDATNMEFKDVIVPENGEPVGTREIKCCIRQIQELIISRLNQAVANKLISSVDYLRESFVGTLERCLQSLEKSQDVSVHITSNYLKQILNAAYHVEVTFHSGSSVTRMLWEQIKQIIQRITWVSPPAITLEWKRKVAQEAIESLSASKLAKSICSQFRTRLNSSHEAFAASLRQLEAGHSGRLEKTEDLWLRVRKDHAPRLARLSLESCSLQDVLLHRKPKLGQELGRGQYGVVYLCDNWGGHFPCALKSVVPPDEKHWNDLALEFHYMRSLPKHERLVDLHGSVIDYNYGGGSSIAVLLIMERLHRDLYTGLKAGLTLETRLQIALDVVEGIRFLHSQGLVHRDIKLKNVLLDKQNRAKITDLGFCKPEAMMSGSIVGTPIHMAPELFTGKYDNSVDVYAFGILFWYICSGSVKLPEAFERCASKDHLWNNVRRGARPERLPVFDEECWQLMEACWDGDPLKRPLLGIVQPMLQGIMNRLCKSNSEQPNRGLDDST

[8] = molecular target: Calcium/calmodulin-dependent protein kinase type II subunit gamma (Homo sapiens) (UniProt Q13555); assay: Selectivity interaction (KinomeScan (DiscoverX)) EUB0000618a CAMK2G; details: at 10 µM
Sequence of Calcium/calmodulin-dependent protein kinase type II subunit gamma (Homo sapiens) (Q13555 whole entry): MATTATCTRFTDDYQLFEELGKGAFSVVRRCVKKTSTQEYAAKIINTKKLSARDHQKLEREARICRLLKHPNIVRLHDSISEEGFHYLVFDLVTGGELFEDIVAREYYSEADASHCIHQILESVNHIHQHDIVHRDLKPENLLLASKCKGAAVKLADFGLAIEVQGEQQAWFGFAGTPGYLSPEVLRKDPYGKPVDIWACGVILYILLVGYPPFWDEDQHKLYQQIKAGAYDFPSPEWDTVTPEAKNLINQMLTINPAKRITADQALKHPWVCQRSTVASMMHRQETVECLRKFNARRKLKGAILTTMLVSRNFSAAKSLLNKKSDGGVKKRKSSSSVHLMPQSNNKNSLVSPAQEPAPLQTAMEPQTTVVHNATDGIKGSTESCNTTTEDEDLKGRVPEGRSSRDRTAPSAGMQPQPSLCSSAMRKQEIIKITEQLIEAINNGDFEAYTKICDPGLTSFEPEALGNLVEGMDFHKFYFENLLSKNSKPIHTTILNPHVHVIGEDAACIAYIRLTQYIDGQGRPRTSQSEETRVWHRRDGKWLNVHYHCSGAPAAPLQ

Sequence of Serine/threonine-protein kinase MRCK beta (Homo sapiens) (Q9Y5S2 whole entry): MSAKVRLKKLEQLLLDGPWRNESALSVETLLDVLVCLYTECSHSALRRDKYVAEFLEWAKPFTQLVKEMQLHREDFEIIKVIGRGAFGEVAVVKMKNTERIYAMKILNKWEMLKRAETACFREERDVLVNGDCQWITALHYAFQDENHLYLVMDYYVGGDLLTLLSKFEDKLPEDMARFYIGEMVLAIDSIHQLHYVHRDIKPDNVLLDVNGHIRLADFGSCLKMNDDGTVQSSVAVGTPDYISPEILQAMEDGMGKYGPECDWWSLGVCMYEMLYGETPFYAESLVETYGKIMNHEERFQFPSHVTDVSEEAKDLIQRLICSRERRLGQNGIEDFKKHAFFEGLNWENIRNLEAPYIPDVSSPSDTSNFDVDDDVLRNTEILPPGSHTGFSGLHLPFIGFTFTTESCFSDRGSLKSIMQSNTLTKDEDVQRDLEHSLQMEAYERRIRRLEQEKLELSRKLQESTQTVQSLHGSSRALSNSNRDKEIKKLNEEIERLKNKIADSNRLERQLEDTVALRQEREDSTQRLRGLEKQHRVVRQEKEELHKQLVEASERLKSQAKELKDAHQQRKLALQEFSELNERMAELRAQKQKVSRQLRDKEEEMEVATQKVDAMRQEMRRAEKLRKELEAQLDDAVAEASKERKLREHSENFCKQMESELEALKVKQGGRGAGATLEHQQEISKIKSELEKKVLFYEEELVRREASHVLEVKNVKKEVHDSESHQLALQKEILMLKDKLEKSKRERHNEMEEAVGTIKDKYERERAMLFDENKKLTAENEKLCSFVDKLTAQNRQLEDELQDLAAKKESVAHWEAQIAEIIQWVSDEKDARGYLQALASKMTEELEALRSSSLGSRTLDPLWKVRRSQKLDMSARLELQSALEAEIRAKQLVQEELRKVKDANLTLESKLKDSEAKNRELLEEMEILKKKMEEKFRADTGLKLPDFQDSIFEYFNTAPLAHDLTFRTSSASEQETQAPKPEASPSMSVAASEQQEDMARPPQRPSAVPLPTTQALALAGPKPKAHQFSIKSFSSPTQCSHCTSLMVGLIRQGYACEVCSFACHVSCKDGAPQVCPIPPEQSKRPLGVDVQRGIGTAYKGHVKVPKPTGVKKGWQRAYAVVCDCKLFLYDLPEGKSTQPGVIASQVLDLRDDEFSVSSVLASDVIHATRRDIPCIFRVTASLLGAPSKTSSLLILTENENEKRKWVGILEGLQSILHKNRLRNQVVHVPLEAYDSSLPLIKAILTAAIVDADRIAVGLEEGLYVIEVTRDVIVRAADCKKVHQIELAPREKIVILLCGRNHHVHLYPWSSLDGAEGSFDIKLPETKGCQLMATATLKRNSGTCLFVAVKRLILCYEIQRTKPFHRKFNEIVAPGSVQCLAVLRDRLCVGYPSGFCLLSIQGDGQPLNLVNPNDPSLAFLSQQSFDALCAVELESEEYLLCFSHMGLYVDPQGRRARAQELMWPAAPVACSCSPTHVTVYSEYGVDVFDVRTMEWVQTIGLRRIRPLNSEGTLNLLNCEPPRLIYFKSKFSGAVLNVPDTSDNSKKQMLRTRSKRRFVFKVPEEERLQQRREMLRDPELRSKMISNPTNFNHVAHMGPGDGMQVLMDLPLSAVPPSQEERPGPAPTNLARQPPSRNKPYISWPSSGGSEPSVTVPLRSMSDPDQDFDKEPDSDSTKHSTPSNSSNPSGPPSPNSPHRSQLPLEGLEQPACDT
Sequence of SRSF protein kinase 1 (Q96SB4 whole entry, canonical isoform): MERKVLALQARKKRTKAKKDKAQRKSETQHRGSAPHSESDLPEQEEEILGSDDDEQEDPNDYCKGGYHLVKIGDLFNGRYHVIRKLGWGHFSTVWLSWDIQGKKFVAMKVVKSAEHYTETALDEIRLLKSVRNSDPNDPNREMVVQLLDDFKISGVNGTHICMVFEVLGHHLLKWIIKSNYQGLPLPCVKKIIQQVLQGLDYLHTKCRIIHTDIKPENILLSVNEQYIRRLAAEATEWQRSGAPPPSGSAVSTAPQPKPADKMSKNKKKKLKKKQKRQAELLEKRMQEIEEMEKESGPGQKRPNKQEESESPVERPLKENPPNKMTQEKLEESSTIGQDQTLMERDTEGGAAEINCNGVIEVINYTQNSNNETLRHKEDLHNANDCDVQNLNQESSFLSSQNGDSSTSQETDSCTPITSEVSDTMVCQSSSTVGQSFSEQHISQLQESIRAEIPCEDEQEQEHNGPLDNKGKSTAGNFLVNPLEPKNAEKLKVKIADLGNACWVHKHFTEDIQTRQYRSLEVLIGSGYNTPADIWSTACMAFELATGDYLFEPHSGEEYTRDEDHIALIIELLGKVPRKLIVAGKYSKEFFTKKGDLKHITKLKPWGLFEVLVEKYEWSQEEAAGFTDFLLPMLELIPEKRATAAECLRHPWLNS
Sequence of Protein kinase C delta type (Homo sapiens) (Q05655 whole entry, looked up): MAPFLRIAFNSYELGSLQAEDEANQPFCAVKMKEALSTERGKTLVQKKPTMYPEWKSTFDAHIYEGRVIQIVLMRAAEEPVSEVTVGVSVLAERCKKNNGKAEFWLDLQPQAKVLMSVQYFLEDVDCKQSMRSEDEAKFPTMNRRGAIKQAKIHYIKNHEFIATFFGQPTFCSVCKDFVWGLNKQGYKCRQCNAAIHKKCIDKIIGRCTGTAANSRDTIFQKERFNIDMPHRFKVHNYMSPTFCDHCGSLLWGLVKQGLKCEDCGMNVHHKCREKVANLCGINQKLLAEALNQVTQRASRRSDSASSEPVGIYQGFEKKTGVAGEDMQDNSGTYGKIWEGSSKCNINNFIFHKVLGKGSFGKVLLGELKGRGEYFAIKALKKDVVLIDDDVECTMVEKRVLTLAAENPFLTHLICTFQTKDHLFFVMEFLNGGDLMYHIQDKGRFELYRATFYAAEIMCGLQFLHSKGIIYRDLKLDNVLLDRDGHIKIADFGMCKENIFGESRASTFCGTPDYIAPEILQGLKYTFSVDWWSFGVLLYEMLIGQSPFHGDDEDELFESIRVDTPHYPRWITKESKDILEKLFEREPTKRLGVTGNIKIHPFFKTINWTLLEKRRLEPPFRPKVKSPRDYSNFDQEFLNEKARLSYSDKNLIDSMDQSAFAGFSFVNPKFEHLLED

dTM [1]: < 2 K
Compound: CN(C)CCCOc1ccc(-c2cc(NCCCn3cccn3)nc(S(C)(=O)=O)n2)cc1

Compound: CNC(=O)Nc1ccc(-c2nc(N3CC4CCC(C3)O4)c3cnn(C4CCC5(CC4)OCCO5)c3n2)cc1
% of control [2]: 100% | % of inhibition [3]: 16%

% of inhibition [4]: 34%
Compound: Cc1ccc(-c2ccc3c(ccc4sc5c(c43)NC[C@@H](C)NC5=O)n2)cn1

% of control ([5]; at 1 µM): 119% | % of control ([5]; at 5 µM): 113%
Compound: C=CC(=O)Nc1cccc(C(=O)Nc2ccc(Nc3cc(-c4[nH]c(SC)nc4C)ccn3)cc2)c1

Compound: C=CC(=O)Nc1cc(-n2c(=O)ccc3cnc4ccc(-c5ccc(NS(C)(=O)=O)cc5)cc4c32)ccc1C
% of control ([6]; at 1 µM): 100% | % of control ([6]; at 10 µM): 100%

Compound: Nc1cnc(N2CCc3cc(S(=O)(=O)Nc4c(F)cc(Cl)cc4F)cc(N4CCCC4=O)c32)nc1 [TP-020n]
% of control [7]: 100%

Compound: O[C@H]1CC[C@H](Nc2ncc3nc(Nc4c(F)cc(F)cc4F)n([C@H]4CCOC4)c3n2)CC1
% of control [8]: 100%

Source: ChEMBL document CHEMBL5465560, “Selectivity Literature for EUbOPEN Chemogenomic Library” (2024)
